Laboratory results from patent US12054494B2, “Compound with anticancer activity” (KYOWA KIRIN CO., LTD., priority 2018, dated 2024).

tested on: SU-DHL-4 cells; assay: Inhibitory effect on cell viability (Cell Counting Kit-8); type: cell-based; settings: Homo sapiens, 72 hours culture with test compound, concentration showing 90% inhibition rate of cell viability
Experimental: Inhibitiory Effect on Cell Viability
SU-DHL-4 cells (Code No. ACC 495, Deutsche Sammlung von Mikroorganismen and Zellkulturen GmbH) were cultured at 37° C. using a carbon dioxide incubator (95% air, 5% CO2) in RPMI1640 medium (Code No. 11875-093, Thermo Fisher Scientific) in which inactivated fetal bovine serum (FBS: Code No. 10099-148, Thermo Fisher Scientific) in an amount to give a final concentration of 10 vol % and penicillin/streptomycin solution (PS: Code No. 15140-122, Thermo Fisher Scientific) in an amount to give a final concentration of 1 vol % were added. The cells were passaged twice a week at a volume of 20-40 mL so as to maintain a cell concentration of 1×10^6 cells/mL or less.
The cultured SU-DHL-4 cells were seeded at 2000 cells/well in a transparent 384-well plate (Code No. 781182, Greiner bio-one). After seeding, the cells were precultured at 37° C. in a carbon dioxide gas incubator for 18 to 25 hours. Next, 1, 0.1 or 0.01 mmol/L DMSO solution of the test compound was prepared and a 9-step dilution series were prepared so that the concentration will be 200 times the final concentration in the RPMI1640 medium containing the above FBS and PS, and 1/200 volume of the dilution series were added to each well. At this time, the final concentration of DMSO was adjusted to be 0.1 vol %. After adding the test compound, the cells were cultured at 37° C. in a carbon dioxide gas incubator for 72 hours. Next, 0.020 mL of Cell Counting Kit-8 (Code No. CK04, DOJINDO) solution diluted 2-fold or 4-fold with phosphate buffered saline (PBS) was added to each well. Color reaction was carried out in a carbon dioxide gas incubator at 37° C. for 2 to 3 hours, and the absorbance at a wavelength of 450 nm was measured using SpectraMax 340PC (Molecular Devices). The inhibition rate of cell viability was calculated by the following formula, and the concentration of the test compound (IC90 value) showing a 90% inhibition rate of cell viability was calculated. Inhibition rate of cell viability (%)=100−(A−B)/(C−B)×100 • A: Absorbance of a well containing test compound • B: Absorbance of a well without addition of cells • C: Absorbance of a well without addition of test compound

Compound | IC90 [nM]
CCC(=O)N1c2ccccc2[C@H](Nc2ccc(NC(=O)Cn3cc(-c4ccc(N[C@@H]5C[C@H](C)N(C(=O)CC)c6ccccc65)cc4)cn3)cc2)C[C@@H]1C (relative stereo) [Compound 6n, N-(4-(((2S*,4R*)-2-Methyl-1-propionyl-1,2,3,4-tetrahydroquinolin-4-yl)amino)phenyl)-2-(4-(4-(((2S,4R)-2-methyl-1-propionyl-1,2,3,4-tetrahydroquinolin-4-yl)amino)phenyl)-1H-pyrazol-1-yl)acetamide] | 0.13
CCC(=O)N1c2ccccc2[C@H](Nc2ccc(-n3cc(CNC(=O)N4CCC(N[C@@H]5C[C@H](C)N(C(=O)CC)c6ccccc65)CC4)nn3)cc2)C[C@@H]1C (relative stereo) [Compound 10b, 4-(((2S*,4R*)-2-Methyl-1-propionyl-1,2,3,4-tetrahydroquinolin-4-yl)amino)-N-((1-(4-(((2S,4R)-2-methyl-1-propionyl-1,2,3,4-tetrahydroquinolin-4-yl)amino)phenyl)-1H-1,2,3-triazol-4-yl)methyl)piperidine-1-carboxamide] | 0.6
CCC(=O)N1c2ccccc2[C@H](Nc2ccc(-c3cnn(CCNC(=O)N4CCC(N[C@@H]5C[C@H](C)N(C(=O)CC)c6ccccc65)CC4)c3)cc2)C[C@@H]1C (relative stereo) [Compound 10d, 4-(((2S*,4R*)-2-Methyl-1-propionyl-1,2,3,4-tetrahydroquinolin-4-yl)amino)-N-(2-(4-(4-(((2S,4R)-2-methyl-1-propionyl-1,2,3,4-tetrahydroquinolin-4-yl)amino)phenyl)-1H-pyrazol-1-yl)ethyl)piperidine-1-carboxamide] | 3.42
CCC(=O)N1c2ccccc2[C@H](Nc2ccc(NC(=O)C3CN(C(=O)N4CCC(N[C@@H]5C[C@H](C)N(C(=O)CC)c6ccccc65)CC4)C3)cc2)C[C@@H]1C (relative stereo) [Compound 10e, N-(4-(((2S*,4R*)-2-Methyl-1-propionyl-1,2,3,4-tetrahydroquinolin-4-yl)amino)phenyl)-1-(4-(((2S,4R)-2-methyl-1-propionyl-1,2,3,4-tetrahydroquinolin-4-yl)amino)piperidine-1-carbonyl)azetidine-3-carboxamide] | 3.59

Other lines, results leading:

IC90 [nM] | Compound
1.15 | CCC(=O)N1c2ccccc2[C@H](NCc2ccc(C(=O)N3CC(C(=O)Nc4ccc(N[C@@H]5C[C@H](C)N(C(=O)CC)c6ccccc65)cc4)C3)cc2)C[C@@H]1C (relative stereo) [Compound 10g, 1-(4-((((2S*,4R*)-2-Methyl-1-propionyl-1,2,3,4-tetrahydroquinolin-4-yl)amino)methyl)benzoyl)-N-(4-(((2S,4R)-2-methyl-1-propionyl-1,2,3,4-tetrahydroquinolin-4-yl)amino)phenyl)azetidine-3-carboxamide]
1.73 | CCC(=O)N1c2ccccc2[C@H](Nc2ccc(CNCc3cn(-c4ccc(N[C@@H]5C[C@H](C)N(C(=O)CC)c6ccccc65)nc4)nn3)cc2)C[C@@H]1C (relative stereo) [Compound 10j, 1-((2S,4R)-2-Methyl-4-((4-((((1-(6-(((2S*,4R*)-2-methyl-1-propionyl-1,2,3,4-tetrahydroquinolin-4-yl)amino)pyridin-3-yl)-1H-1,2,3-triazol-4-yl)methyl)amino)methyl)phenyl)amino)-3,4-dihydroquinoline-1(2H)-yl)propan-1-one]
1.08 | CCC(=O)N1c2ccccc2[C@H](Nc2ccc(NC(=O)CCCC(=O)Nc3ccc(N[C@@H]4C[C@H](C)N(C(=O)CC)c5ccccc54)cn3)cc2)C[C@@H]1C (relative stereo) [Compound 10l, N^1-(4-(((2S,4R)-2-Methyl-1-propionyl-1,2,3,4-tetrahydroquinolin-4-yl)amino)phenyl)-N^5-(5-(((2S*,4R*)-2-methyl-1-propionyl-1,2,3,4-tetrahydroquinolin-4-yl)amino)pyridin-2-yl)glutaramide]
